Tests used:
[1] = cited from earlier work
[2] = literature value, 'under the same conditions'; cited from earlier work
[3] = Stability constants of Mn(II) complexes and calculated pMn (equilibrium study); assay type: physicochemical; details: 25° C., 0.15M NaCl; for pMn: calculated from equilibrium constants at pH = 7.4 and cMn = cL = 10^−5 M
Procedure: (§1) During the physico-chemical tests of tPC2AM^Pyp and tPC2AM^Pro compounds synthesized according to Example 1 and 2, their protonation constant, as well as equilibrium behaviour and kinetic inertism of their Mn(II) complexes was studied in detail, and the characteristic relaxivity values of the complexes were determined in the presence and absence of HSA (Human Serum Albumin), at 25 and 37° C. and physiological pH. All studies were performed in the presence of 0.15 M NaCl, the same concentration as that of the electrolyte under physiological conditions.
(§2) The results of equilibrium study are summarized in Table 1, in addition to the protonation constants, total basicity of ligands and stability constants of their Mn(II) complexes, the pMn value calculated for complexes are also represented in the table.
Based on the pMn values represented in Table 1 (calculated using the equilibrium constants at pH=7.4 and cMn=cL=10^−5 M), it can be concluded that the studied Mn(II) complexes are formed in 100% at physiological pH, which is an essential aspect of the practical use.

[4] = Protonation constants of the ligands (equilibrium study); assay type: physicochemical; details: 25° C., 0.15M NaCl
Procedure: as §1, §2

Row | logKMnL (stability constant of Mn(II) complex) [3] | pMn [3] | logK1 (protonation constant) [4] | logK2 (protonation constant) [4] | ΣlogKi^H (total basicity) [4] | logK3 (protonation constant) [4] | logK4 (protonation constant) [4] | Structure (SMILES) | Gd(III) ion released, calculated on the basis of experiments at 25° C. ([1]; 25° C.) [%] | Gd(III) ion released during in vivo dissociation ([1]; 37° C.) [%] | r1 relaxivity [2] [mM⁻¹ s⁻¹]
1 | – | – | – | – | – | – | – | CNC[C@H](O)[C@@H](O)[C@H](O)[C@H](O)CO.CNC[C@H](O)[C@@H](O)[C@H](O)[C@H](O)CO.O=C([O-])CN(CCN(CC(=O)[O-])CC(=O)O)CCN(CC(=O)[O-])CC(=O)O.[Gd+3] [MAGNEVIST] | 0.5 | 2.2 | 4.02
2 | 13.09(2) | 7.09 | 11.31(1) | 3.94(3) | 15.26 | – | – | O=C(CN1CCNCCN(CC(=O)N2CCCCC2)Cc2cccc(n2)C1)N1CCCCC1 [tPC2AM^Pyp] | – | – | –
3 | – | – | – | – | – | – | – | CNC[C@H](O)[C@@H](O)[C@H](O)[C@H](O)CO.O=C([O-])CN1CCN(CC(=O)[O-])CCN(CC(=O)O)CCN(CC(=O)[O-])CC1.[Gd+3] [DOTAREM] | – | – | 3.83
4 | 13.77(3) | 7.85 | 9.80(2) | 7.96(4) | 23.67 | 3.65(5) | 2.26(4) | O=C(O)C1CCCN1C(=O)CN1CCNCCN(CC(=O)N2CCCC2C(=O)O)Cc2cccc(n2)C1 (stereo not shown) [tPC2AM^Pro] | – | – | –

Reference: patent publication US10568976B2, “3,6,9, 15-tetraaza-bicyclo [9.3.1 ]pentadeca-1(14), 11(15), 12-triene based compounds and their application as ligands of essential metal ion based MRI and 52MN based PET contrast agents” (DEBRECENI EGYETEM, priority 2015, dated 2020)
